Results published in US7977049B2, “Methods and compositions for extending the life span and increasing the stress resistance of cells and organisms” (priority 2002, dated 2011).
Like-named read-outs stand apart in the source and are kept apart here.

Key:
recombinant human SIRT1 = molecular target: T1, recombinant human SIRT1 (Homo sapiens, UniProt Q96EB6); assay: In vitro deacetylation assay (HDAC Fluorescent Activity Assay), SIRT1; format: biochemical
T1 sequence (Q96EB6 1-747): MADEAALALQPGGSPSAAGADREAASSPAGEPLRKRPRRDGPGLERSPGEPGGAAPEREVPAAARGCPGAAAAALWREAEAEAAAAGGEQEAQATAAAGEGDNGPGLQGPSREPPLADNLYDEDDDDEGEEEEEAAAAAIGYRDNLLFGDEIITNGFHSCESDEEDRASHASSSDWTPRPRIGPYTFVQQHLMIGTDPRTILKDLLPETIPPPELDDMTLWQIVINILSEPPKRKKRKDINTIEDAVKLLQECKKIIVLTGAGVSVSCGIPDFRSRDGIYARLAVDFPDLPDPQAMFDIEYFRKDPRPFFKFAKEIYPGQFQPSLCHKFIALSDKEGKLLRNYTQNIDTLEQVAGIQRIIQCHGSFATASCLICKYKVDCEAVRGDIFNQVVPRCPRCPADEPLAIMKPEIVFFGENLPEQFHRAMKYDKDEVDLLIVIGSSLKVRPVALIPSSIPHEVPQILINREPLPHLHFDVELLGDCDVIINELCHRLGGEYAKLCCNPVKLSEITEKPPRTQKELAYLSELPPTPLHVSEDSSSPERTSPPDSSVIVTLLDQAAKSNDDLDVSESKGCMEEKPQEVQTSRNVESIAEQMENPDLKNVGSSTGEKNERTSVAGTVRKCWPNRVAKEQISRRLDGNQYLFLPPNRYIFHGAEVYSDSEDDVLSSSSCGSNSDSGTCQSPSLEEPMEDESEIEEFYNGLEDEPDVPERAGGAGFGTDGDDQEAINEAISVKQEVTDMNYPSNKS
Method: (§1) FIG. 13. […] Reactions were terminated by the addition of developer and samples were analyzed by fluorometry (excitation set at 360 nm and emission at 460 nm). Experiments were performed in triplicate. Data is shown as a Lineweaver-Burk double reciprocal plot of arbitrary fluorescence units (AFUs) min^−1 versus NAD^+ (μM). B, Experiments were performed as in A, except that recombinant human SIRT1 was used and reactions were carried out at 37° C. […] Reactions were carried out at 37° C. for 30 minutes and fluorescence was measured as in A.
(§2) In vitro deacetylation assays—Recombinant GST tagged yeast Sir2p (gift of D. Moazed) and recombinant human SIRT1 (47′) were assayed for deacetylase activity using the HDAC Fluorescent Activity Assay/Drug Discovery Kit (AK-500, BIOMOL Research Laboratories). This assay system allows detection of a fluorescent signal upon deacetylation of a histone substrate when treated with developer. Fluorescence was measured on a fluorometric reader (Cytofluor II 400 series PerSeptive Biosystems) with excitation set at 360 nm and emission detection set at 460 nm. Reactions consisted of either 5 μg of GST-Sir2 or 2.5 μg of SIRT1, incubated with 250 μM acetylated histone substrate, 1 mM DTT and a range of NAD^+ concentrations as described, in 50 μl of assay buffer. […]

[1] = molecular target: T2, Recombinant GST tagged yeast Sir2p (Saccharomyces cerevisiae, UniProt P06700); assay: In vitro deacetylation assay (HDAC Fluorescent Activity Assay), Sir2; format: biochemical; conditions: 200-750 μM NAD+, 30° C.
T2 construct: gift of D. Moazed
Method: as §1, §2

[2] = tested on: yeast (PSY316AT and sir2::TRP1 strains)
Method: (§3) FIG. 9. […] A, Strains were assayed for rDNA stability by examining the rate of loss of an ADE2 marker integrated at the rDNA locus. […] More than 10,000 colonies were examined for each strain and each experiment was performed in triplicate. Average recombination frequencies (+/−s.d.) per cell division are shown. Relevant strains: W303-1A RDN1::ADE2 (W303AR5) and W303AR5 derivatives 2×SIR2 (YDS1572) and sir2::TRP1 (YDS878). […] C and D, Life spans were determined by scoring the number of daughter cells produced by each mother cell before cessation of cell division (68′,69′). Cells were pre-grown for a minimum of 48 h on complete glucose medium.
Replicative life span determination was performed by micromanipulation as described (25′). A minimum of 40 cells were examined per experiment and each experiment was performed at least twice independently. Statistical significance of life span differences was determined using the Wilcoxon rank sum test. Differences are stated to be significant when the confidence is higher than 95%.
Cells were grown for two days on fresh yeast YPD medium to ensure that they had fully recovered from conditions of calorie restriction prior to the assay. Daughter cells that emerged from previously unbudded mother cells were then micro-manipulated away and scored.

[3] = tested on: rDNA locus of yeast (W303AR5 strains); assay: Ribosomal DNA recombination (loss of ADE2 marker at the rDNA locus); format: cell-based, Saccharomyces cerevisiae; conditions: 5 mM nicotinamide
Method: as §3

silencing at telomeres = assay: Telomeric silencing assay (ADE2 marker at the telomere); format: cell-based, Saccharomyces cerevisiae; conditions: 5 mM nicotinamide, limiting adenine
Method: Silencing of the MET15 marker is indicated by the accumulation of a brown pigment. Single dark brown colonies in RDN1::MET15 strains represent marker loss events. Relevant genotypes: met15Δ (JS209), MET15 (JS241), RDN1::MET15 (JS237), sir2::TRP1 (JS218), 2×SIR2 (YDS1583). […] Silencing of the ADE2 marker results in the accumulation of a red pigment. Relevant genotypes: (PSY316AT), W303-1 A ADE2 (YDS1596) and W303-1A ade2 (YDS 1595).
Cells were grown at 30° C. on YPD medium (1% yeast extract, 2% bactopeptone, 2% glucose w/v) unless otherwise stated. The extent of silencing at the ribosomal DNA locus was determined by growing RDN1::MET15 strains on Pb^2+-containing medium (0.3% peptone, 0.5% yeast extract, 4% glucose, 0.02% (w/v) ammonium acetate, 0.07% Pb(NO3)2 and 2% agar). […] Ribosomal DNA recombination frequencies were determined as previously described (44′).
To monitor telomeric silencing, we used a strain in which the ADE2 gene is integrated at the subtelomeric (Y′) region of the right arm of chromosome V (22′). On plates with limiting adenine, colonies have red/white sectors due to variegated expression of the ADE2 marker.

[4] = tested on: silencing of mating type genes; assay: Mating type locus silencing assay; format: cell-based, Saccharomyces cerevisiae; conditions: nicotinamide
[5] = tested on: silent mating type locus (HMR); assay: HMR::GFP reporter silencing (fluorescence microscopy and FACS); format: cell-based, Saccharomyces cerevisiae; conditions: for GFP expression from HMR by FACS: asynchronous wild type cells, 5 mM compound
Method: FIG. 10. […] Cells were photographed live. […] Cells were analyzed by fluorescent activated cell sorting (FACS) to determine the extent of ADH-GFP expression. C, A MATa derivative of strain YDS970 (YDS1005) was deleted for HML and treated with 10 μg/ml alpha-factor for 3 hours. […] Cell cycle progression was monitored at each time point by FACS analysis of propidium iodide stained cells.
GFP fluorescence was quantified by fluorescence-activated cell sorting (FACS) using a FACSCalibur flow cytometer (Becton Dickinson, Calif.) as described (45′). For G1-arrest experiments, cells were treated with 10 μg/ml alpha factor for 3 hours. DNA content was determined by FACS analysis of fixed cells stained with propidium iodide (Sigma) as described (45′). Typically 20,000 cells were analyzed per sample. Data acquisition and analysis were performed using CELLQuest software (Becton Dickenson).

Sir2 = Sir2 protein levels in the presence of nicotinamide; format: cell-based, Saccharomyces cerevisiae; conditions: nicotinamide 1-5 mM
[6] = molecular target: T3, association of Sir2 with rDNA, HMR and sub-telomeric DNA (Saccharomyces cerevisiae, UniProt P06700); assay: Chromatin immunoprecipitation with α-Sir2 antibody; format: cell-based; conditions: 5 mM nicotinamide
T3 construct: endogenous in cells; host or cells: S. cerevisiae W303AR5
Method: FIG. 12. […] PCR amplification of both input DNA from whole cell extracts and immunoprecipitated chromatin are shown. PCR was performed using primer pairs specific for the CUP1 gene (top panels), 5S rDNA (second panels), the HMR locus (third panels), or subtelomeric DNA 1.4 and 0.6 kb from telomeres (bottom panels).
Fluorescence Microscopy and Chomatin immunoprecipitation—GFP fluorescence was visualized in live cells grown to log phase in synthetic complete (SC) medium (1.67% yeast nitrogen base, 2% glucose, 40 mg/liter each of histidine, uridine, tryptophan, adenine and leucine). Images were captured using a Nikon Eclipse E600 microscope at a magnification of 1000× and analyzed with Scion Image software. PCR reactions were carried out in a 50 μl volume using a 1/5000 or a 1/12500 dilution of input DNA from precleared whole-cell extracts and a 1/50 dilution of immunoprecipitated DNA. PCR parameters were as follows. For CUP1 and 5S rDNA primer pairs, 26 cycles of PCR were performed with an annealing temperature of 55° C. For Tel 0.6, Tel 1.4 and HM primer pairs 32 cycles at an annealing temperature of 50° C. were used. PCR products were separated by gel electrophoresis on a 2.3% agarose gel and visualized by ethidium bromide staining.

[7] = tested on: silencing at the rDNA locus (RDN1)
Method: Silencing of the MET15 marker is indicated by the accumulation of a brown pigment. Single dark brown colonies in RDN1::MET15 strains represent marker loss events. […] Silencing of the ADE2 marker results in the accumulation of a red pigment.
Cells were grown at 30° C. on YPD medium (1% yeast extract, 2% bactopeptone, 2% glucose w/v) unless otherwise stated. The extent of silencing at the ribosomal DNA locus was determined by growing RDN1::MET15 strains on Pb^2+-containing medium (0.3% peptone, 0.5% yeast extract, 4% glucose, 0.02% (w/v) ammonium acetate, 0.07% Pb(NO3)2 and 2% agar).
Strains with either an ADE2 or MET15 marker integrated at the rDNA locus (RDN1) were examined. Silencing of ADE2 results in the accumulation of a red pigment on plates with limiting adenine, whereas silencing of MET15 leads to production of a brown pigment on Pb^2+-containing medium. […] Strains with a single extra copy of SIR2 (2×SIR2) or lacking SIR2 (sir2::TRP1), were included as controls for increased silencing and lack of silencing, respectively.

T3 sequence (P06700 whole entry): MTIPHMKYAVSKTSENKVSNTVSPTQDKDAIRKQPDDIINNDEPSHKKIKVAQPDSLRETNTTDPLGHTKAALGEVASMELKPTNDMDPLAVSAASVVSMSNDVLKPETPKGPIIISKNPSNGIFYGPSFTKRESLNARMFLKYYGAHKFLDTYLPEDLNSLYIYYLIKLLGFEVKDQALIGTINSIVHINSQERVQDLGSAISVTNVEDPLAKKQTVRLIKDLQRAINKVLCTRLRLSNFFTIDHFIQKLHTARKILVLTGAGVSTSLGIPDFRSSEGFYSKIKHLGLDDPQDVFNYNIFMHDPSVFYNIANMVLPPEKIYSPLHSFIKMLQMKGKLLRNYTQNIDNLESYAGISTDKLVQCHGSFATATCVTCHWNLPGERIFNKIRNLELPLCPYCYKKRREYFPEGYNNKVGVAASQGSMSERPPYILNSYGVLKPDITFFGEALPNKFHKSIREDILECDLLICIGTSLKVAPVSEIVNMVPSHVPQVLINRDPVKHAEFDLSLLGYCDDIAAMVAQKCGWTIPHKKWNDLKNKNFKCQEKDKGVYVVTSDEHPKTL
T2 sequence (P06700 whole entry): as above

How did the “mode of inhibition of SIRT1 (Lineweaver-Burk plot)” value (recombinant human SIRT1; varying amounts of nicotinamide and NAD+) turn out when NC(=O)c1cccnc1 [nicotinamide] was run?
Its value is “non-competitive”.

And the “mode of inhibition of Sir2 deacetylation (Lineweaver-Burk plot)” value [1]?
Its value is “strong non-competitive inhibitor”.

And the “Average life span, sir2 strain” value ([2]; sir2::TRP1 (YDS1594), 5 mM nicotinamide)?
Its value is 11.7.

What about the “Average life span, wild type” value ([2]; wild type (PSY316AT), 5 mM nicotinamide) of the same molecule?
The value was 12.1.

And the “rDNA recombination in the sir2 strain” value ([3]; sir2 strain)?
Its value is “did not further increase recombination”.

And the “increase of the frequency of ADE2 marker loss at the rDNA” value ([3]; wild type and 2×SIR2 cells)?
The value was roughly 7 fold.

What about the “telomeric silencing of ADE2 marker” value (silencing at telomeres) of the same molecule?
The value was “complete loss of repression”.

And the “silencing of mating type genes” value [4]?
Its value is “completely abrogated silencing”.

What about the “HMR silencing in G1-arrested cells by FACS” value ([5]; alpha factor arrested cells, 5 mM nicotinamide) of the same molecule?
Its value is “loss of silencing”.

What about the “GFP expression from HMR by FACS” value [5] of the same molecule?
The value was “complete derepression”.

And the “GFP expression from HMR, live cells (microscopy)” value ([5]; cycling cells, 5 mM nicotinamide, after 60 minutes)?
Its value is “dramatic increase in the level of expression”.

And the Sir2 protein levels (Sir2)?
The Sir2 protein levels was “unaltered”.

And the “ChIP: Sir2 association with 5S rDNA” value [6]?
Its value is “did not alter the amount of PCR product”.

And the “ChIP: Sir2 association with HMR” value [6]?
The value was “no PCR product was obtained”.

What about the “ChIP: Sir2 association with sub-telomeric DNA” value ([6]; 0.6 and 1.4 kb from telomere) of the same molecule?
The value was “equivalent to background”.

And the “silencing of MET15 marker at the rDNA locus” value ([7]; 5 mM nicotinamide)?
Its value is “completely abolished”.

What about the “Silencing of an ADE2 marker at the rDNA locus” value ([7]; addition of nicotinamide) of the same molecule?
The value was “similarly abolished”.

Which “effect on the activity of SIRT1 in vitro” value (recombinant human SIRT1; 50 μM compound, 200 μM NAD+) does the source give for O=C(O)c1cccnc1 [nicotinic acid] here?
The value was “no effect”.

And the “effect on replicative life span” value ([2]; 5 or 50 mM nicotinic acid)?
The value was “no detrimental effect”.

And the “Average life span, sir2 strain” value ([2]; sir2 strain, nicotinic acid (concentration not clear))?
Its value is 12.2.

What about the “Average life span, wild type” value ([2]; wild type, 5 mM nicotinic acid) of the same molecule?
The value was 26.

And the “Average life span, wild type” value ([2]; wild type, 50 mM nicotinic acid)?
The value was 25.

And the “GFP expression from HMR by FACS” value [5]?
The value was “no increase in GFP expression”.

What about the “effect on Sir2-dependent silencing” value ([7]; 5 mM nicotinic acid, each of the rDNA, telomeric and mating type silencing assays) of the same molecule?
Its value is “no effect”.

How did the “GFP expression from HMR by FACS” value [5] turn out when O=C(O)c1cccnc1C(=O)O [quinolinic acid] was run?
Its value is “no increase in GFP expression”.
